Experimental data published in the OligoGym collection.
After the bases stand the sugars from the 5' end (letter, count) and the backbone: PS all phosphorothioate, else s phosphorothioate and o phosphodiester by linkage. Methylation of C is not given here. e = 2'-O-(2-methoxyethyl) (MOE); k = constrained ethyl (cEt); d = 2'-deoxy (DNA); m = 2'-O-methyl

Target: HSD17B13
Conditions: ASO, HepaRG

Row | Sequence | target mRNA inhibition (1 µM) | further results
1 | GATGATTCTGACTCAT (sugars k3 d10 k3, PS) | 55% | –
2 | CATCTCTGGGACCAAG (sugars k3 d10 k3, PS) | 51% | –
3 | ACATCTCTGGGACCAA (sugars k3 d9 k3 e1, PS) | 65% | –
4 | ACTAGGAAGTGATCCA (sugars k3 d10 k3, PS) | 58% | –
5 | GTTAGAATAGTCTTCA (sugars k3 d1 m1 d8 k3, PS) | 42% | –
6 | GCCACTGGATGGATTT (sugars k3 d10 k3, PS) | 36% | –
7 | TTAGUCTTGATGTAGT (sugars k3 d1 m1 d8 k3, PS) | 50% | –
8 | AGAGAGTAATCAGTTT (sugars k3 d10 k3, PS) | 39% | –
9 | GCTGCTATTTAGGGCA (sugars k3 d10 k3, PS) | 53% | –
10 | GCAGAAATTCACCTTG (sugars k3 d9 k3 e1, PS) | 62% | –
11 | GTGCCAAACCAATGTT (sugars k3 d9 k3 e1, PS) | 56% | –
12 | ACTTTTGGTGGACTTC (sugars k3 d10 k3, PS) | 0% | –
13 | TTTGCAGCATTGATTC (sugars k3 d10 k3, PS) | 53% | –
14 | TCAGACTTCTTACGAC (sugars k3 d10 k3, PS) | 36% | –
15 | AGACCAAGTAGCTTAC (sugars k3 d10 k3, PS) | 42% | –
16 | CTGTGAGAGGATAGTG (sugars k3 d10 k3, PS) | 33% | –
17 | GTAAGGAATCCCTTCG (sugars k3 d10 k3, PS) | 22% | –
18 | TGGTAACGGTGATCAA (sugars k3 d9 k3 e1, PS) | 35% | –
19 | TCCAATACAGGCCATA (sugars k3 d10 k3, PS) | 62% | –
20 | GCCTAAAGGAGATCTG (sugars k3 d10 k3, PS) | 67% | –
21 | CTCGCGAGATGATGTT (sugars k3 d10 k3, PS) | 40% | –
22 | TGTATCTTATAAGACT (sugars k3 d10 k3, PS) | 45% | –
23 | CATTTAGAATACGCTG (sugars k3 d10 k3, PS) | 25% | –
24 | TGATCTCTTAGCTGTG (sugars k3 d10 k3, PS) | 59% | –
25 | TTAGTCTTGATGTAGT (sugars k3 d9 k3 e1, PS) | 61% | –

Row | Sequence | target mRNA inhibition (1 µM) | further results
26 | GTCTACCTCTAAGTTA (sugars kkdddddddddkekek, PS) | 15% | –
27 | AGGTTGAGATAAAGCT (sugars kkdddddddddkekek, PS) | 60% | –
28 | CACATATGTGAAGAGC (sugars kkdddddddddkekek, PS) | 53% | –
29 | TCCATAATAATAGCTC (sugars k3 d10 k3, PS) | 69% | –
30 | TTGAACAGTCTTAAAC (sugars k3 d9 k3 e1, PS) | 35% | –
31 | CGTTTAAATCAGAGCA (sugars k3 d10 k3, PS) | 54% | –
32 | GATCCATATTCCCTGA (sugars k3 d10 k3, PS) | 74% | target mRNA inhibition (0.02 µM): 0%; target mRNA inhibition (0.078 µM): 0%; target mRNA inhibition (0.313 µM): 21%; target mRNA inhibition (1.25 µM): 40%; target mRNA inhibition (5 µM): 60%
33 | CCTTAGGAAAGCTCAT (sugars k3 d10 k3, PS) | 29% | –
34 | CTGATGTCAGACCTCT (sugars k3 d10 k3, PS) | 35% | –
35 | AGTATAGTTATCTTCT (sugars k3 d10 k3, PS) | 67% | –
36 | CCTTGAATAGCAAGCC (sugars k3 d10 k3, PS) | 61% | –
37 | GTTCTGATGTCAGACC (sugars k3 d10 k3, PS) | 55% | –
38 | AATAUTGAGGCACTGG (sugars k3 d1 m1 d8 k3, PS) | 48% | –
39 | CTTACATGATTAAGCA (sugars k3 d10 k3, PS) | 44% | –
40 | ATGGTGATCAGAAGCA (sugars k3 d10 k3, PS) | 85% | target mRNA inhibition (0.02 µM): 0%; target mRNA inhibition (0.078 µM): 28%; target mRNA inhibition (0.313 µM): 46%; target mRNA inhibition (1.25 µM): 80%; target mRNA inhibition (5 µM): 81%
41 | ACATCTCTGGGACCAA (sugars k3 d1 m1 d8 k3, PS) | 68% | –
42 | CTGGAAGGAGGATTCA (sugars k3 d10 k3, PS) | 39% | –
43 | AGTTAGGGAGCCAGCG (sugars k3 d10 k3, PS) | 38% | –
44 | AAGGAGCTAGATACTC (sugars k3 d10 k3, PS) | 19% | –
45 | TTAAATCAGGCAGTCA (sugars k3 d10 k3, PS) | 45% | –
46 | TGACAATGGTTGATAG (sugars k3 d1 m1 d8 k3, PS) | 42% | –
47 | CCTTATGATAATTTGG (sugars k3 d10 k3, PS) | 29% | –
48 | AAGACATTCTAGCCTG (sugars kkdddddddddkekek, PS) | 25% | –
49 | CATCAAGACATTCTAG (sugars k3 d10 k3, PS) | 49% | –
50 | ACTTTTAGTCAGGTAG (sugars k3 d10 k3, PS) | 26% | –

Row | Sequence | target mRNA inhibition (1 µM) | further results
51 | AATCACAAGTAAGGTA (sugars k3 d9 k3 e1, PS) | 63% | –
52 | CTACACTAATATTGAG (sugars k3 d1 m1 d8 k3, PS) | 29% | –
53 | GATACTGGTGGACAAG (sugars k3 d10 k3, PS) | 13% | –
54 | CCATAACCATAGGACA (sugars k3 d10 k3, PS) | 63% | target mRNA inhibition (0.02 µM): 35%; target mRNA inhibition (0.078 µM): 13%; target mRNA inhibition (0.313 µM): 54%; target mRNA inhibition (1.25 µM): 78%; target mRNA inhibition (5 µM): 91%
55 | ACCTTGAATGAGTGGT (sugars k3 d10 k3, PS) | 26% | –
56 | GCAGAAATTCACCTTG (sugars k3 d1 m1 d8 k3, PS) | 54% | –
57 | TGTACAGTAGGCAGTT (sugars k3 d10 k3, PS) | 75% | –
58 | AAGCAGAATTGTGAAC (sugars k3 d10 k3, PS) | 18% | –
59 | CTTAATTTTCGGGTTC (sugars k3 d10 k3, PS) | 37% | –
60 | TATTAGAAGTCAGCCC (sugars k3 d9 k3 e1, PS) | 32% | –
61 | ATCTTAAGATACCCAG (sugars k3 d9 k3 e1, PS) | 71% | –
62 | TAGTAATCACAAGTAA (sugars k3 d10 k3, PS) | 30% | –
63 | CTTATTGGTAAGTATT (sugars kkdddddddddkekek, PS) | 9% | –
64 | AAATTGATACACCAAT (sugars k3 d10 k3, PS) | 14% | –
65 | AAAATATGTCCAGGTT (sugars k3 d10 k3, PS) | 74% | –
66 | GAAATCTTGTGTAACT (sugars k3 d10 k3, PS) | 69% | target mRNA inhibition (0.02 µM): 0%; target mRNA inhibition (0.078 µM): 4%; target mRNA inhibition (0.313 µM): 37%; target mRNA inhibition (1.25 µM): 71%; target mRNA inhibition (5 µM): 87%
67 | ATCCATTCTATGCAAG (sugars k3 d10 k3, PS) | 46% | –
68 | GACATAGACATGTGTT (sugars k3 d10 k3, PS) | 26% | –
69 | AAGTCCAGAATAGAGT (sugars k3 d10 k3, PS) | 60% | –
70 | AACTTCATAGTGGACT (sugars k3 d10 k3, PS) | 68% | –
71 | TCGGTCACCTTTCATA (sugars k3 d10 k3, PS) | 64% | –
72 | GGGCTAATGAAAAAGG (sugars k3 d10 k3, PS) | 14% | –
73 | TCATAGCTCACTTAGT (sugars k3 d10 k3, PS) | 0% | –
74 | ATCTTATAAGACTATA (sugars k3 d9 k3 e1, PS) | 53% | –
75 | ATCCAGATCTGCCCTA (sugars k3 d10 k3, PS) | 39% | –

Row | Sequence | target mRNA inhibition (1 µM) | further results
76 | AGTAAACGACTCTGTA (sugars k3 d10 k3, PS) | 33% | –
77 | TGCCAAACCAATGTTT (sugars k3 d10 k3, PS) | 32% | –
78 | GATCTCTTAGCTGTGC (sugars k3 d9 k3 e1, PS) | 70% | –
79 | TGATATTCTGTGGCAT (sugars k3 d10 k3, PS) | 69% | target mRNA inhibition (0.02 µM): 0%; target mRNA inhibition (0.078 µM): 0%; target mRNA inhibition (0.313 µM): 22%; target mRNA inhibition (1.25 µM): 64%; target mRNA inhibition (5 µM): 82%
80 | TACCTCTAAGTTAGCC (sugars kkdddddddddkekek, PS) | 20% | –
81 | TTATGTGATTGAGTTC (sugars k3 d9 k3 e1, PS) | 30% | –
82 | GAAGTTAGTATAGTTA (sugars k3 d9 k3 e1, PS) | 75% | –
83 | CATTCTAAACTACTAT (sugars k3 d10 k3, PS) | 11% | –
84 | AGTCGGTCACCTTTCA (sugars k3 d10 k3, PS) | 66% | –
85 | AGAGCATAAGTTACCA (sugars k3 d10 k3, PS) | 88% | target mRNA inhibition (0.02 µM): 4%; target mRNA inhibition (0.078 µM): 11%; target mRNA inhibition (0.313 µM): 50%; target mRNA inhibition (1.25 µM): 78%; target mRNA inhibition (5 µM): 79%
86 | TCTAAATACCCTTGGT (sugars k3 d10 k3, PS) | 26% | –
87 | GCTCCAGTAATGAGAA (sugars k3 d10 k3, PS) | 34% | –
88 | CTAGGATGTTGACCTC (sugars k3 d10 k3, PS) | 0% | –
89 | TCCGAAAAAAGTGGAG (sugars k3 d10 k3, PS) | 12% | –
90 | GCATTAATGCCACCCT (sugars k3 d10 k3, PS) | 36% | –
91 | AGCCAGTACAGTTCCT (sugars k3 d10 k3, PS) | 58% | –
92 | GTATTTACTTTTAGGG (sugars k3 d10 k3, PS) | 61% | –
93 | TTCTACACCACACTAA (sugars k3 d10 k3, PS) | 12% | –
94 | CATAAAAATCGCTGCT (sugars k3 d10 k3, PS) | 45% | –
95 | GTTTACAAGTAAGAAC (sugars k3 d10 k3, PS) | 42% | –
96 | GCCAGTACAGTTCCTT (sugars k3 d10 k3, PS) | 61% | –
97 | TTAGTTAGAATAGTCT (sugars kkdddddddddkekek, PS) | 53% | –
98 | GTTGACCTCAAATGTC (sugars k3 d10 k3, PS) | 0% | –
99 | ATGAAGTTAGTATAGT (sugars k3 d9 k3 e1, PS) | 61% | –
100 | TGATTGAGTTCTCCAC (sugars k3 d10 k3, PS) | 48% | –
